Results on two molecules are retold here after EPA's ToxValDB 9.5 (doi:10.2903/j.efsa.2006.72r).

Values after ≈ are worked out from the molar mass of the structure shown.

One data set concerns Anas platyrhynchos. The settings on record: short-term; oral; feed; mortality.
Another data set concerns Canidae. The following applies: short-term; duration: 2 weeks; Dog Other.
Another data set relates to Colinus virginianus. The settings on record: acute; oral; diet; mortality.
The next data set relates to Cyprinodon variegatus. The settings on record: acute; duration: 96 hours; mortality.
The next data set concerns Daphnia magna. The following applies: chronic/long-term; duration: 21 days; mortality.
Another data set relates to Folsomia candida. The following applies: not reported; mortality.
The subject of a further data set is Mus musculus. The following applies: chronic, duration: 2 years.
A further data set concerns Oryctolagus sp. The following applies: reproduction developmental; inhalation.
The subject of a further data set is Pimephales promelas. The settings on record: chronic/long-term; duration: 33 days; growth.
Another data set has as its system Rattus norvegicus. The following applies: for LD50: acute, mortality; for NOAEL: histopathology: neoplastic.
A further data set concerns Landoltia sp. The following applies: acute; duration: 14 days; mortality.
The next data set concerns Oncorhynchus mykiss. The settings on record: acute; duration: 96 hours; mortality.

Consider `ClC=CCCl` [1,3-Dichloropropene], for which the LC50 in the data set on Anas platyrhynchos was over 1260 mg/kg-day; in the data set on Cyprinodon variegatus, 0.87 µg/mL (≈ 7.84 µM); with Tagia sp. (acute, duration: 14 days, mortality), 55.6 mg/kg. In addition, the NOAEL (commonly the highest tested level that showed no adverse finding) in the data set on Canidae was determined as 20 mg/kg-day; in the data set with Mus musculus (inhalation, histopathology: neoplastic), 4.43 mg/kg-day; in the data set on Mus musculus (oral, M/F), 2.5 mg/kg-day; in the data set on Oryctolagus sp., 0.0908 mg/L; in the data set with Rattus norvegicus (chronic, duration: 2 years, oral, diet), 2.5 mg/kg-day; in the data set on Rattus norvegicus (subchronic, duration: 90 days, inhalation), 9.72 mg/kg-day. Further, the LD50 came to 140 mg/kg in the data set on Colinus virginianus, 2.7 mg/L with Rattus norvegicus (inhalation) and 130 mg/kg with Rattus norvegicus (oral). For the same molecule, the NOEC amounted to 0.0701 mg/L in the data set on Daphnia magna; 0.032 mg/L in the data set on Pimephales promelas; 770 mg/kg in the data set on Tagia sp. (chronic/long-term, duration: 56 days, reproduction). The LEL with Folsomia candida came to 329000 g/ha.

Take `O=C(O)C=CCl` [3-Chloroacrylic acid]: the LC50 in the data set on Landoltia sp. amounted to 0.26 µg/mL (≈ 2.44 µM); in the data set with Oncorhynchus mykiss it was 69.5 µg/mL (≈ 653 µM). The molecule also displayed an LD50 with Rattus norvegicus (oral) of 91 mg/kg.
